For series [1] the following is noted: monkey, in vivo; cited from earlier work.
In series [2] the test system is Fisher Bladder Carcinoma tumor tissue. The settings on record: rat, in vivo, iv.
Procedure: (§1) Tumor (2 mm viable tumor fragment) was transplanted subcutaneously on the right frank by trocar
(§2) Treatment was started when tumor size is about 1.5 cm.(2 weeks after implantation.) . . . tumor weight: 1.0+0.3 g
(§3) The drug was administered Intravenously (through the penile vein)
(§4) Group A: 5-FU 20 mg/kg (3H-5-FU30 μCi)+saline
(§5) Tumor was surgically removed (and blood was collected) at *predeterminated time after drug administration. Tumor weight was measured (and blood was centrifuged to obtain a plasma sample.)
(§6) *15 min, 60 min, 3 hr, 4 hrs, . . . after drug administration . . . .
(§7) Radioactivity level in tumor tissue was counted, using a liquid scintillation counter.
A short description of series [3]: Toxicity of indomethacin solubilized in n-methyl glucamine with hyaluronic acid in animals. The format is in vivo. The method, then:
As a major amount of soluble indomethacin may be incorporated into the formulation, or composition, the indomethacin may be solubilized using n-methyl glucamine at a dilution of 5 mg/ml of n-methyl glucamine (NMG). This substance is then passed through a […] Milipore filter to produce sterility. […] The solution of indomethacin and NMG may be mixed with, for example, "LifeCore™" hyaluronic acid in dosage amounts discussed above. This produces an appropriate mixture and can be administered safely.

Series [4] in a line: Topical treatment of back pain in a patient with kyphosis. The following applies: applied to back in hyaluronic acid.
For series [5], the system named is psoriasis. As to the kind of experiment: Topical treatment of a patient with psoriasis. In kind it is in vivo, human (patient). The settings on record: carried in hyaluronic acid.
Procedure: In another patient, a drug (methotrexate) was carried in hyaluronic acid and applied topically to a patient with psoriasis.
A short description of series [6]: Chronic conditions - evaluations of patients treated with […] hyaluronic acid with 3% diclofenac acid (HD). In kind it is in vivo, human (patients). The settings on record: single patient.
For series [7], the system named is Fisher Bladder Carcinoma tumor tissue. In words: Intratumour injection study, radioactivity in tumor tissue. The format is in vivo, Fisher 344 rat. The settings on record: intratumor injection; 1 h, 6 h.
Procedure: Animal: Fisher 344 rat, male 200-250g b. […] These drugs were administrated by intratumor injection. […] At the same time, injection into normal skin (on the left frank) was carried out similarly.
Series [8] in a line: Intratumour injection study, radioactivity in normal skin. In kind it is in vivo, Fisher 344 rat. The settings on record: injection into normal skin; 1 h, 6 h.
Procedure: Animal: Fisher 344 rat, male 200-250g At the same time, injection into normal skin (left frank) was carried out similarly. […] At the same time, injection into normal skin (on the left frank) was carried out similarly.
Series [9] is described as follows: Intravenous injection, radioactivity in liver. The format is in vivo, Fisher 344 rat. Further details: unit not given beside the values. The settings on record: mean ± S.E.
The subject of series [10] is Fisher Bladder Carcinoma tumor tissue. In words: Intravenous injection, radioactivity in tumor tissue. The following applies: mean ± S.E., FIG. 5 plots CPM.
Procedure: as §1, §2, §3, §4, §5, §6, §7
The conditions of series [11]: human, in vivo.

“Also recorded” adds a separate entry of the source. Where a name gives a salt, the structure may show the parent alone. Read-outs that look alike come from different tables or passages of the source.

Take sodium hyaluronate: the “Cellular infiltration of the vitreous and anterior chamber, flare, haze, pathological changes” value in [1] is “no significant cellular infiltration of the vitreous and anterior chamber, no flare in the aqueous humour, no haze or flare in the vitreous, and no pathological changes”.

Consider hyaluronic acid, for which the “Radioactivity in tumor tissue (in words)” value in series [2] is listed as “can enhance 5-FU uptake in tumor tissue”.

Consider `COc1ccc2c(c1)c(CC(=O)O)c(C)n2C(=O)c1ccc(Cl)cc1` [indomethacin], for which the “Multiple of the therapeutic dose that is non-toxic in animals” value in series [3] is 16 fold. The Side effects result in series [4] is on record as “some side effects”.

For `CN(Cc1cnc2nc(N)nc(N)c2n1)c1ccc(C(=O)N[C@@H](CCC(=O)O)C(=O)O)cc1` [methotrexate], in series [5], the Response of psoriasis entry is given as “the psoriasis cleared”.

`O=C(OCC(O)CO)c1ccccc1Nc1ccnc2c(C(F)(F)F)cccc12` (centres unmarked) [Idarac]: the “Comments on outcome (in words)” value in [6] is on record as “poor response”.

On to `O=c1[nH]cc(F)c(=O)[nH]1` [Formulation 5-FU, 5-Fluoracil], for which the “Radioactivity retention in tumor tissue (in words)” value in [7] was “radioactivity immediately disappeared from the tumor or the normal tissue”. Further, the “Radioactivity clearance in normal tissue (skin) (in words)” value in series [8] is listed as “radioactivity immediately disappeared from the tumor or the normal tissue”. The Radioactivity in liver in series [9] (15 min after i.v.) is given as 18680 ± 625; in series [9] (60 min after i.v.), 5451 ± 841; in series [9] (3 hrs after i.v.) it was 2230 ± 449; in series [9] (5 hrs after i.v.), 1129 ± 70. The Radioactivity in tumor in series [10] (15 min after i.v.) came to 2810 ± 165; in series [10] (60 min after i.v.), 1751 ± 149; in series [10] (3 hrs after i.v.), 1493 ± 227; in series [10] (5 hrs after i.v.), 853 ± 129.

As to `COc1ccc2cc([C@H](C)C(=O)O)ccc2c1` [naproxen], the Side effects entry in series [4] was “some side effects”.

Take `O=C(c1ccccc1)c1ccc2n1CCC2C(=O)O` (racemic) [Toradol™, (+/-) tromethamine salt of ketorolac]: the Side effects entry in series [11] is reported as “there were no side effects”. Moreover, the Back pain result in series [4] is “the back pain eased and disappeared for some time”.

In the case of `CN1C(C(=O)Nc2ccccn2)=C(O)c2ccccc2S1(=O)=O` [piroxicam], the “Comments on outcome (in words)” value in series [6] was “nega-; also recorded: poor relief”.

(Values after US5977088A (priority 1995, dated 1999).)
